Assay results taken from patent US20040029968A1, “Nateglinide-containing hydrophilic pharmaceutical preparation” (AJINOMOTO CO. INC, priority 2000, published 2004).

Experiment: Contact angle of the preparation surface to water
Assay type: physicochemical
Settings: flat, smooth tablets prepared from the crystals; water dropped onto the surface
Method: The term “contact angle to water” as employed herein means an angle wherein drops of water to be deposited to the surface of preparation compositions such as tablets and the like contact with said surface, which can be used as an indication of hydrophilic nature. For example, such contact angle is measured by forming 1 μL of droplet of pure water (MILLI-Q; MILLIPORE Co.) on the tip of needle (SNSO 52/026; made from stainless steel, inner diameter of 0.26 mm, outer diameter of 0.52 mm; HAMILTON Co.) and evaluating the contact angle at 60 m sec. after the droplet arrives onto the surface of tablet, using a contact angle measuring device (OCA-15 type; Data Physics Co.). When the surface of tablet has curvature, such contact angle is measured by correcting this curvature to straight line at the time when analysis is conducted. Usually, the contact angle is usually measured at room temperature.
As for preparations of which forms are not tablets, contact angles can be measured after molding powders, granules, semisolids and the like contained in such preparation. For example, in the case of capsules, the contact angle thereof can be determined by removing the contents of capsules and molding 200 mg of the contents into a tablet having diameter of 8 mm and thickness of 3.50 mm and having flat and smooth surface.

| SMILES | contact angle of the surface of tablets to water |
| --- | --- |
| CC(C)[C@H]1CC[C@H](C(=O)N[C@H](Cc2ccccc2)C(=O)O)CC1 [nateglinide H-type crystals, N-(trans-4-isopropylcyclohexanecarbonyl)-D-phenylalanine] | 85 degree |
| CC(C)[C@H]1CC[C@H](C(=O)N[C@H](Cc2ccccc2)C(=O)O)CC1 [nateglinide B-type crystals, N-(trans-4-isopropylcyclohexanecarbonyl)-D-phenylalanine] | 95 degree |
